Experimental data taken from patent publication US5281604A, “Angiotensin II receptor blocking 2,3,6-substituted quinazolinones” (American Cyanamid Company, priority 1993, dated 1994).
“And” between values parts separate entries of the source, which are not always exact repeats. Equal entries are not always repeated.

Tested on: ANGIOTENSIN II (AII) VASOPRESSOR RESPONSE
Experiment: AII Challenge: blockade of the angiotensin II vasopressor response in conscious spontaneously hypertensive rats
Type: in vivo, rat (Male Okamoto-Aoki SHR)
From the text: By administering a compound of this invention to a rat, and then challenging with angiotensin II, a blockage of the vasopressor response is realized.
Conscious Male Okamoto-Aoki SHR, 16-20 weeks old, weighing approximately 330 g are purchased from Charles River Labs (Wilmington, Mass.). Conscious rats are restrained in a supine position with elastic tape. The area at the base of the tail is locally anesthetized by subcutaneous infiltration with 2% procaine. The ventral caudal artery and vein are isolated, and a cannula made of polyethylene (PE) 10-20 tubing (fused together by heat) is passed into the lower abdominal aorta and vena cava, respectively. The cannula is secured, heparinized (1,000 I.U./ml), sealed and the wound is closed. The animals are placed in plastic restraining cages in an upright position. The cannula is attached to a Statham P23Db pressure transducer, and pulsatile blood pressure is recorded to 10-15 minutes with a Gould Brush recorder. (Chan et al., (Drug Development Res., 18:75-94, 1989).
Angiotensin II (human sequence, Sigma Chem. Co., St. Louis, Mo.) of 0.05 and 0.1 ug/kg i.v. is injected into all rats (predosing response). Then a test compound, vehicle or a known angiotensin II antagonist is administered i.v., i.p. or orally to each set of rats. The two doses of angiotensin II are given to each rat again at 30, 60, 90, 120, 180, 240 and 300 minutes post dosing the compound or vehicle. The vasopressor response of angiotensin II is measured for the increase in systolic blood pressure in mmHg. The percentage of antagonism or blockade of the vasopressor response of angiotensin II by a compound is calculated using the vasopressor response (increase in systolic blood pressure) of angiotensin II of each rat predosing the compound as 100%. A compound is considered active if at 30 mg/kg i.v. it antagonized at least 50% of the response.

[1] = 1 mg/kg i.v., AII 0.05 mcg/kg IV, 30 min post dose
[2] = 1 mg/kg i.v., AII 0.1 mcg/kg IV, 30 min post dose
[3] = 29 mg/kg i.v., AII 0.05 mcg/kg IV, 60 min post dose
[4] = 29 mg/kg i.v., AII 0.05 mcg/kg IV, 90 min post dose
[5] = 29 mg/kg i.v., AII 0.05 mcg/kg IV, 120 min post dose
[6] = 29 mg/kg i.v., AII 0.05 mcg/kg IV, 180 min post dose
[7] = 29 mg/kg i.v., AII 0.05 mcg/kg IV, 240 min post dose
[8] = 29 mg/kg i.v., AII 0.05 mcg/kg IV, 300 min post dose
[9] = 29 mg/kg i.v., AII 0.1 mcg/kg IV, 60 min post dose
[10] = 29 mg/kg i.v., AII 0.1 mcg/kg IV, 90 min post dose
[11] = 29 mg/kg i.v., AII 0.1 mcg/kg IV, 120 min post dose
[12] = 29 mg/kg i.v., AII 0.1 mcg/kg IV, 180 min post dose
[13] = 29 mg/kg i.v., AII 0.1 mcg/kg IV, 240 min post dose
[14] = 29 mg/kg i.v., AII 0.1 mcg/kg IV, 300 min post dose
[15] = 3 mg/kg i.v., AII 0.05 mcg/kg IV, 30 min post dose
[16] = 3 mg/kg i.v., AII 0.05 mcg/kg IV, 60 min post dose
[17] = 3 mg/kg i.v., AII 0.05 mcg/kg IV, 90 min post dose
[18] = 3 mg/kg i.v., AII 0.05 mcg/kg IV, 120 min post dose
[19] = 3 mg/kg i.v., AII 0.05 mcg/kg IV, 180 min post dose
[20] = 3 mg/kg i.v., AII 0.05 mcg/kg IV, 240 min post dose
[21] = 3 mg/kg i.v., AII 0.05 mcg/kg IV, 300 min post dose
[22] = 3 mg/kg i.v., AII 0.1 mcg/kg IV, 30 min post dose
[23] = 3 mg/kg i.v., AII 0.1 mcg/kg IV, 60 min post dose
[24] = 3 mg/kg i.v., AII 0.1 mcg/kg IV, 90 min post dose
[25] = 3 mg/kg i.v., AII 0.1 mcg/kg IV, 120 min post dose
[26] = 3 mg/kg i.v., AII 0.1 mcg/kg IV, 180 min post dose
[27] = 3 mg/kg i.v., AII 0.1 mcg/kg IV, 240 min post dose
[28] = 3 mg/kg i.v., AII 0.1 mcg/kg IV, 300 min post dose

CCCCc1nc2ccc(C3CC4C(O3)ON(c3ccccc3)C4c3ccccc3)cc2c(=O)n1Cc1ccc(-c2ccccc2-c2nnn[nH]2)cc1 (stereo not drawn) [Example 10, (3α, 3aβ, 5β, 6aβ)-2-Butyl-6-(hexahydro-2,3-diphenylfuro[3,2-d]isoxazol-5-yl)-3-[[2'-(1H-tetrazol-5-yl)[1,1'-biphenyl]-4-yl]methyl]-4(3H)-quinazolinone]
% Inhibition [1]: 39% | Average Change [1]: 33.5 mmHg | Control Before AII (single rat) [1]: 248 mmHg and 230 mmHg | Response After AII (single rat) [1]: 290 mmHg and 255 mmHg | Response Change (single rat) [1]: 42 mmHg and 25 mmHg | % Inhibition [2]: 41% | Average Change [2]: 42.5 mmHg | Control Before AII (single rat) [2]: 250 mmHg and 220 mmHg | Response After AII (single rat) [2]: 295 mmHg and 260 mmHg | Response Change (single rat) [2]: 45 mmHg and 40 mmHg | % Inhibition [3]: 82% | Average Change [3]: 10 mmHg | Control Before AII (single rat) [3]: 265 mmHg and 235 mmHg | Response After AII (single rat) [3]: 270 mmHg and 250 mmHg | Response Change (single rat) [3]: 5 mmHg and 15 mmHg | % Inhibition [4]: 82% | Average Change [4]: 10 mmHg | Control Before AII (single rat) [4]: 235 mmHg and 230 mmHg | Response After AII (single rat) [4]: 250 mmHg and 235 mmHg | Response Change (single rat) [4]: 15 mmHg and 5 mmHg | % Inhibition [5]: 77% | Average Change [5]: 12.5 mmHg | Control Before AII (single rat) [5]: 210 mmHg and 240 mmHg | Response After AII (single rat) [5]: 225 mmHg and 250 mmHg | Response Change (single rat) [5]: 15 mmHg and 10 mmHg | % Inhibition [6]: 73% | Average Change [6]: 15 mmHg | Control Before AII (single rat) [6]: 215 mmHg and 220 mmHg | Response After AII (single rat) [6]: 235 mmHg and 230 mmHg | Response Change (single rat) [6]: 20 mmHg and 10 mmHg | % Inhibition [7]: 82% | Average Change [7]: 10 mmHg | Control Before AII (single rat) [7]: 220 mmHg and 215 mmHg | Response After AII (single rat) [7]: 235 mmHg and 220 mmHg | Response Change (single rat) [7]: 15 mmHg and 5 mmHg | % Inhibition [8]: 73% | Average Change [8]: 15 mmHg | Control Before AII (single rat) [8]: 210 mmHg and 200 mmHg | Response After AII (single rat) [8]: 220 mmHg | Response Change (single rat) [8]: 10 mmHg and 20 mmHg | % Inhibition [9]: 86% | Average Change [9]: 10 mmHg | Control Before AII (single rat) [9]: 265 mmHg and 230 mmHg | Response After AII (single rat) [9]: 270 mmHg and 245 mmHg | Response Change (single rat) [9]: 5 mmHg and 15 mmHg | % Inhibition [10]: 72% | Average Change [10]: 20 mmHg | Control Before AII (single rat) [10]: 230 mmHg and 235 mmHg | Response After AII (single rat) [10]: 250 mmHg and 255 mmHg | Response Change (single rat) [10]: 20 mmHg | % Inhibition [11]: 65% | Average Change [11]: 25 mmHg | Control Before AII (single rat) [11]: 200 mmHg and 215 mmHg | Response After AII (single rat) [11]: 230 mmHg and 235 mmHg | Response Change (single rat) [11]: 30 mmHg and 20 mmHg | % Inhibition [12]: 79% | Average Change [12]: 15 mmHg | Control Before AII (single rat) [12]: 210 mmHg and 220 mmHg | Response After AII (single rat) [12]: 225 mmHg and 235 mmHg | Response Change (single rat) [12]: 15 mmHg | % Inhibition [13]: 79% | Average Change [13]: 15 mmHg | Control Before AII (single rat) [13]: 215 mmHg | Response After AII (single rat) [13]: 235 mmHg and 225 mmHg | Response Change (single rat) [13]: 20 mmHg and 10 mmHg | % Inhibition [14]: 79% | Average Change [14]: 15 mmHg | Control Before AII (single rat) [14]: 210 mmHg | Response After AII (single rat) [14]: 230 mmHg and 220 mmHg | Response Change (single rat) [14]: 20 mmHg and 10 mmHg

CCCCc1nc2ccc(C3CC4C(c5ccc(C)cc5)=NOC4O3)cc2c(=O)n1Cc1ccc(-c2ccccc2-c2nnn[nH]2)cc1 (centres unmarked) [Example 12]
% Inhibition [15]: 56% | Average Change [15]: 16.5 mmHg | Control Before AII (single rat) [15]: 220 mmHg and 255 mmHg | Response After AII (single rat) [15]: 233 mmHg and 275 mmHg | Response Change (single rat) [15]: 13 mmHg and 20 mmHg | % Inhibition [16]: 53% | Average Change [16]: 17.5 mmHg | Control Before AII (single rat) [16]: 215 mmHg and 245 mmHg | Response After AII (single rat) [16]: 235 mmHg and 260 mmHg | Response Change (single rat) [16]: 20 mmHg and 15 mmHg | % Inhibition [17]: 60% | Average Change [17]: 15 mmHg | Control Before AII (single rat) [17]: 225 mmHg and 235 mmHg | Response After AII (single rat) [17]: 240 mmHg and 250 mmHg | Response Change (single rat) [17]: 15 mmHg | % Inhibition [18]: 45% | Average Change [18]: 20.5 mmHg | Control Before AII (single rat) [18]: 207 mmHg and 225 mmHg | Response After AII (single rat) [18]: 233 mmHg and 240 mmHg | Response Change (single rat) [18]: 26 mmHg and 15 mmHg | % Inhibition [19]: 33% | Average Change [19]: 25 mmHg | Control Before AII (single rat) [19]: 195 mmHg and 225 mmHg | Response After AII (single rat) [19]: 225 mmHg and 245 mmHg | Response Change (single rat) [19]: 30 mmHg and 20 mmHg | % Inhibition [20]: 53% | Average Change [20]: 17.5 mmHg | Control Before AII (single rat) [20]: 220 mmHg and 230 mmHg | Response After AII (single rat) [20]: 240 mmHg and 245 mmHg | Response Change (single rat) [20]: 20 mmHg and 15 mmHg | % Inhibition [21]: 48% | Average Change [21]: 19.5 mmHg | Control Before AII (single rat) [21]: 220 mmHg and 230 mmHg | Response After AII (single rat) [21]: 245 mmHg and 244 mmHg | Response Change (single rat) [21]: 25 mmHg and 14 mmHg | % Inhibition [22]: 53% | Average Change [22]: 18.5 mmHg | Control Before AII (single rat) [22]: 218 mmHg and 250 mmHg | Response After AII (single rat) [22]: 245 mmHg and 260 mmHg | Response Change (single rat) [22]: 27 mmHg and 10 mmHg | % Inhibition [23]: 42% | Average Change [23]: 22.5 mmHg | Control Before AII (single rat) [23]: 220 mmHg and 240 mmHg | Response After AII (single rat) [23]: 245 mmHg and 260 mmHg | Response Change (single rat) [23]: 25 mmHg and 20 mmHg | % Inhibition [24]: 29% | Average Change [24]: 27.5 mmHg | Control Before AII (single rat) [24]: 220 mmHg and 230 mmHg | Response After AII (single rat) [24]: 250 mmHg and 255 mmHg | Response Change (single rat) [24]: 30 mmHg and 25 mmHg | % Inhibition [25]: 23% | Average Change [25]: 30 mmHg | Control Before AII (single rat) [25]: 205 mmHg and 225 mmHg | Response After AII (single rat) [25]: 240 mmHg and 250 mmHg | Response Change (single rat) [25]: 35 mmHg and 25 mmHg | % Inhibition [26]: 42% | Average Change [26]: 22.5 mmHg | Control Before AII (single rat) [26]: 205 mmHg and 225 mmHg | Response After AII (single rat) [26]: 225 mmHg and 250 mmHg | Response Change (single rat) [26]: 20 mmHg and 25 mmHg | % Inhibition [27]: 10% | Average Change [27]: 35 mmHg | Control Before AII (single rat) [27]: 220 mmHg and 225 mmHg | Response After AII (single rat) [27]: 260 mmHg and 255 mmHg | Response Change (single rat) [27]: 40 mmHg and 30 mmHg | % Inhibition [28]: 10% | Average Change [28]: 35 mmHg | Control Before AII (single rat) [28]: 220 mmHg and 225 mmHg | Response After AII (single rat) [28]: 255 mmHg and 260 mmHg | Response Change (single rat) [28]: 35 mmHg
